Measured values taken from PubChem BioAssay AID248 (DTP/NCI, 2004).
Several values for one entry are separate records, joined by “and”; a condition that tells them apart may be missing. Equal entries are not always repeated. Inconclusive results and toxic doses are left out. Rule as the data show it: active = T/C of 150% or more; inactive = T/C below 125%.

System: L1210 leukemia ip in BDF1 mice, survival T/C
Assay: NCI In Vivo Anticancer Drug Screen. Data for tumor model L1210 Leukemia (intraperitoneal) in B6D2F1 (BDF1) mice
Settings: endpoint: mean survival time, higher = longer survival
Summary of the method: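 Ratio derived from survival: compound-dosed mice over vehicle-dosed mice, all bearing a transplantable tumor.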

[1] = dose: 25.0 mg/kg/injection, schedule: Q01DX009 (ip), vehicle: saline with Tween-80
[2] = dose: 50.0 mg/kg/injection, schedule: Q01DX009 (ip), vehicle: saline with Tween-80
[3] = dose: 100.0 mg/kg/injection, schedule: Q01DX009 (ip), vehicle: saline with Tween-80
[4] = dose: 100.0 mg/kg/injection, schedule: Q04DX002 (ip), vehicle: Klucel (hydroxypropylcellulose) (HPC)
[5] = dose: 100.0 mg/kg/injection, schedule: Q04DX002 (ip), vehicle: saline
[6] = dose: 100.0 mg/kg/injection, schedule: Q01DX009 (ip), vehicle: Klucel (hydroxypropylcellulose) (HPC)
[7] = dose: 100.0 mg/kg/injection, schedule: Q04DX003 (ip), vehicle: Klucel (hydroxypropylcellulose) (HPC)
[8] = dose: 200.0 mg/kg/injection, schedule: Q04DX003 (ip), vehicle: Klucel (hydroxypropylcellulose) (HPC)
[9] = dose: 400.0 mg/kg/injection, schedule: Q01DX009 (ip), vehicle: Klucel (hydroxypropylcellulose) (HPC)
[10] = dose: 400.0 mg/kg/injection, schedule: Q04DX003 (ip), vehicle: Klucel (hydroxypropylcellulose) (HPC)
[11] = dose: 100.0 mg/kg/injection, schedule: Q01DX001 (ip), vehicle: saline
[12] = dose: 200.0 mg/kg/injection, schedule: Q01DX001 (ip), vehicle: saline
[13] = dose: 400.0 mg/kg/injection, schedule: Q01DX001 (ip), vehicle: saline

Measured: T/C

Cc1ccc2ccccc2[n+]1[O-]
inactive: [1] 100 % of control | dose: 25.0 mg/kg/injection, schedule: Q04DX002 (ip), vehicle: saline with Tween-80 93 % of control | [2] 96 % of control | dose: 50.0 mg/kg/injection, schedule: Q04DX002 (ip), vehicle: saline with Tween-80 104 % of control | dose: 75.0 mg/kg/injection, schedule: Q01DX001 (ip), vehicle: carboxymethylcellulose (CMC) 94 % of control | [3] 96 % of control | dose: 100.0 mg/kg/injection, schedule: Q04DX002 (ip), vehicle: saline with Tween-80 96 % of control | dose: 150.0 mg/kg/injection, schedule: Q01DX001 (ip), vehicle: carboxymethylcellulose (CMC) 96 % of control

FC(F)(F)c1cccc(NC(=S)NNC(=S)NNc2ccccc2)c1
inactive: [4] 101 % of control | dose: 200.0 mg/kg/injection, schedule: Q04DX002 (ip), vehicle: Klucel (hydroxypropylcellulose) (HPC) 101 % of control | dose: 400.0 mg/kg/injection, schedule: Q04DX002 (ip), vehicle: Klucel (hydroxypropylcellulose) (HPC) 101 % of control

CC1CC(NCCO)CC(C)(C)C1 (stereo not drawn)
inactive: dose: 75.0 mg/kg/injection, schedule: Q01DX001 (ip), vehicle: acid diluted with saline 122 % of control | dose: 150.0 mg/kg/injection, schedule: Q01DX001 (ip), vehicle: acid diluted with saline 100 % of control

CC1(C)NC(=O)C2CC21C (stereo not drawn)
inactive: [5] 91 % of control

O=C(COc1ccc(Cl)cc1)Nc1ccc(Cl)cc1
inactive: [6] 91 % of control | [7] 92 % of control | [8] 93 % of control | [9] 88 % of control | [10] 93 % of control

c1ccc([P+](c2ccccc2)(c2ccccc2)C2CC2)cc1
inactive: dose: 5.0 mg/kg/injection, schedule: Q01DX001 (ip), vehicle: saline 93 % of control | dose: 10.0 mg/kg/injection, schedule: Q01DX001 (ip), vehicle: saline 101 % of control | dose: 20.0 mg/kg/injection, schedule: Q01DX001 (ip), vehicle: saline 104 % of control | dose: 40.0 mg/kg/injection, schedule: Q01DX001 (ip), vehicle: saline 104 % of control

CNC(=O)OCC(Cl)(Cl)Cl
inactive: [6] 97 % of control | [7] 96 % of control | dose: 200.0 mg/kg/injection, schedule: Q01DX009 (ip), vehicle: Klucel (hydroxypropylcellulose) (HPC) 98 % of control | [8] 100 % of control | [9] 95 % of control | [10] 100 % of control

CC1CCC2(NC1)OC1CC3C4CCC5CC(OC6OC(CO)C(OC7OC(CO)C(O)C(OC8OCC(O)C(O)C8O)C7OC7OC(CO)C(O)C(O)C7O)C(O)C6O)CCC5(C)C4CCC3(C)C1C2C (stereo not drawn)
inactive: dose: 12.5 mg/kg/injection, schedule: Q01DX009 (ip), vehicle: saline with Tween-80 93 % of control | [1] 90 % of control | [2] 94 % of control | dose: 100.0 mg/kg/injection, schedule: Q01DX001 (sc), vehicle: steriod suspending solution 95 % of control | dose: 200.0 mg/kg/injection, schedule: Q01DX001 (sc), vehicle: steriod suspending solution 103 % of control | dose: 400.0 mg/kg/injection, schedule: Q01DX001 (sc), vehicle: steriod suspending solution 97 % of control

COc1ccc(CCNC(=O)c2ccccc2N=Cc2cc(Cl)cc(Cl)c2O)cc1OC
inactive: dose: 75.0 mg/kg/injection, schedule: Q01DX009 (ip), vehicle: Klucel (hydroxypropylcellulose) (HPC) 94 % of control | dose: 150.0 mg/kg/injection, schedule: Q01DX009 (ip), vehicle: Klucel (hydroxypropylcellulose) (HPC) 96 % of control | dose: 300.0 mg/kg/injection, schedule: Q01DX009 (ip), vehicle: Klucel (hydroxypropylcellulose) (HPC) 96 % of control

CCCCC(CCC)(CCC)CCN
inactive: dose: 2.0 mg/kg/injection, schedule: Q01DX001 (ip), vehicle: carboxymethylcellulose (CMC) 98 % of control | dose: 2.5 mg/kg/injection, schedule: Q01DX015 (ip), vehicle: carboxymethylcellulose (CMC) 89 % of control | dose: 4.0 mg/kg/injection, schedule: Q01DX001 (ip), vehicle: carboxymethylcellulose (CMC) 103 % of control | dose: 5.0 mg/kg/injection, schedule: Q01DX015 (ip), vehicle: carboxymethylcellulose (CMC) 94 % of control | dose: 8.0 mg/kg/injection, schedule: Q01DX001 (ip), vehicle: carboxymethylcellulose (CMC) 108 % of control | dose: 10.0 mg/kg/injection, schedule: Q01DX015 (ip), vehicle: carboxymethylcellulose (CMC) 93 % of control | dose: 16.0 mg/kg/injection, schedule: Q01DX001 (ip), vehicle: carboxymethylcellulose (CMC) 90 % of control

CCC(CC)C(O)(C(=O)O)C(CC)CC
inactive: [11] 95 % of control | [12] 89 % of control | [13] 97 % of control

Clc1ccc2c(c1)-c1ccccc1C1=NCCN12
inactive: dose: 5.0 mg/kg/injection, schedule: Q01DX009 (ip), vehicle: Klucel (hydroxypropylcellulose) (HPC) 95 % of control | dose: 10.0 mg/kg/injection, schedule: Q01DX009 (ip), vehicle: Klucel (hydroxypropylcellulose) (HPC) 101 % of control | dose: 10.0 mg/kg/injection, schedule: Q04DX003 (ip), vehicle: Klucel (hydroxypropylcellulose) (HPC) 101 % of control | dose: 20.0 mg/kg/injection, schedule: Q04DX003 (ip), vehicle: Klucel (hydroxypropylcellulose) (HPC) 110 % of control

O=[N+]([O-])c1ccc(C[Se]c2ncnc3c(C4OC(CO)C(O)C4O)[nH]nc23)cc1 (stereo not drawn)
inactive: dose: 12.5 mg/kg/injection, schedule: Q01DX005 (ip), vehicle: saline 98 % of control | dose: 25.0 mg/kg/injection, schedule: Q01DX005 (ip), vehicle: saline 104 % of control | dose: 50.0 mg/kg/injection, schedule: Q01DX005 (ip), vehicle: saline 93 % of control

CC1(c2ccco2)C(=O)NC(=O)N1C(=O)CCl (stereo not drawn)
inactive: [3] 112 % of control | dose: 100.0 mg/kg/injection, schedule: Q04DX003 (ip), vehicle: saline with Tween-80 96 % of control | dose: 200.0 mg/kg/injection, schedule: Q01DX009 (ip), vehicle: saline with Tween-80 101 % of control | dose: 200.0 mg/kg/injection, schedule: Q04DX003 (ip), vehicle: saline with Tween-80 103 % of control | dose: 400.0 mg/kg/injection, schedule: Q04DX003 (ip), vehicle: saline with Tween-80 101 % of control

Nc1nc(N)c(N=Nc2ccc([As](=O)(O)O)c(O)c2)c(N)n1
inactive: [11] 92 % of control | [12] 92 % of control | [13] 100 % of control

CCOC(=O)c1ccc(NCc2nnc3nc(N)[nH]c(=O)c3n2)cc1
inactive: dose: 50.0 mg/kg/injection, schedule: Q01DX001 (ip), vehicle: saline with Tween-80 102 % of control | dose: 100.0 mg/kg/injection, schedule: Q01DX001 (ip), vehicle: saline with Tween-80 96 % of control | dose: 200.0 mg/kg/injection, schedule: Q01DX001 (ip), vehicle: saline with Tween-80 98 % of control

O=C1OCC/C1=C\N1CCCCC1
inactive: dose: 25.0 mg/kg/injection, schedule: Q04DX002 (ip), vehicle: Klucel (hydroxypropylcellulose) (HPC) 113 % of control | dose: 50.0 mg/kg/injection, schedule: Q04DX002 (ip), vehicle: Klucel (hydroxypropylcellulose) (HPC) 98 % of control | [4] 98 % of control and 101 % of control

CCCCCCCC(=O)N1C(C)CCCC1C (stereo not drawn)
inactive: [5] 114 % of control | dose: 200.0 mg/kg/injection, schedule: Q04DX002 (ip), vehicle: saline 111 % of control | dose: 400.0 mg/kg/injection, schedule: Q04DX002 (ip), vehicle: saline 104 % of control

CCOC(=O)NNC(=O)CN
inactive: dose: 75.0 mg/kg/injection, schedule: Q01DX001 (ip), vehicle: saline 104 % of control

CC[As](=O)(O)c1ccccc1
inactive: dose: 6.25 mg/kg/injection, schedule: Q01DX009 (ip), vehicle: saline 89 % of control | dose: 12.5 mg/kg/injection, schedule: Q01DX009 (ip), vehicle: saline 89 % of control

CNC(=O)OCc1c(COC(=O)NC)c(-c2ccc(Cl)c(Cl)c2)n2c1CCC2
inactive: dose: 12.5 mg/kg/injection, schedule: Q01DX009 (ip), vehicle: Klucel (hydroxypropylcellulose) (HPC) 106 % of control | dose: 25.0 mg/kg/injection, schedule: Q01DX009 (ip), vehicle: Klucel (hydroxypropylcellulose) (HPC) 109 % of control | dose: 50.0 mg/kg/injection, schedule: Q01DX009 (ip), vehicle: Klucel (hydroxypropylcellulose) (HPC) 124 % of control
